{
  "source": "patent US20140039204A1",
  "about": "“7'-PHLOROECKOL COMPOUND FOR HAIR PROLIFERATION AND A COSMETIC COMPOSITION CONTAINING SAME” (PUKYONG NATIONAL UNIVERSITY INDUSTRY-UNIVERSITY COOPERATION …, priority 2011, published 2014)",
  "key": {"[1]": {"test_system": "AKT pathway (PI3K, p-AKT, whole AKT) in HFDPC", "assay": "Western blot, AKT pathway in HFDPC", "type": "cell-based, human", "conditions": "1 hour", "method": "(§1) Western blot assay was performed as standard procedure to study the action mechanism on HFDPC and HaCaT proliferation mediated by 7′-phloroeckol. That is, cells were seeded with serum free medium in 6-well, then cultured for 24 hours (1.0×10^6 cells/well). Then, the cells were replaced with new medium and treated with the samples in the different concentrations for 1 hour to 24 hours. The cells were lysed in RIPA lysis buffer at 4° C. for 10 minutes. 10 μg cell lysate were divided by 10% SDS-polyacrylamide gel electrophoresis, transferred to polyvinylidenefluoride membrane filter and the membranes were blocked with 5% skim milk, hybridized with primary antibodies (1:10,000 dilution). Following the incubation with secondary horseradish peroxidase-conjugated antibodies at room temperature, immunoreactive protein was detected by using chemiluminescence ECL assay kit according to the manufacturer's instructions. Western blot band was visualized by using LAS3000® Luminescent image analyzer (Fujifilm Life Science, Tokyo, Japan).\n(§2) Cells were treated with 7′-phloroeckol for 1 hour to 24 hours to examine the expression of protein by using western blot assay. Graph showing the result of western blot in HFDPC were illustrated in the FIGS. 3 to 6(a) and graphs showing the result of western blot in HaCaT were illustrated in the FIGS. 3 to 6(b). While HFDPC and HaCaT were treated with 7′-phloroeckol for 1 hour in the experiment on the pathway of ERK and AKT relating cell proliferation, HFDPC and HaCaT were treated with 7′-phloroeckol for 24 hours in the experiment on Bcl-2, Bax, p53, caspase-9 and caspase-3 relating apoptosis, then the protein expression were observed.\n(§3) Data were expressed as a ratio of control group that doesn't contain the treated samples, the values are means±SEM, different letters written on the graph indicate a significant defference in Duncan's multiple range test (p<0.05).\nAfter HFDPC and HaCaT were treated with 7′-phloroeckol and cultured for 1 hour to study the activation of 7′-phloroeckol on AKT pathway related cell proliferation (FIG. 4). […] But, there was no difference in whole AKT levels between treated with samples and without samples. Also, 0.5 μM 7′-phloroekol induced 1.75-fold and 1.65-fold levels of PI3K and pAKT in HaCaT."}, "[2]": {"test_system": "HaCaT (human epidermal keratinocyte)", "assay": "MTT assay, cell proliferation of HaCaT", "type": "cell-based", "conditions": "5 days", "method": "(§4) Human Hair Follicle Dermal Papilla Cells (HFDPC) were purchased from Promo Cell (Heidelberg, Germany). Cells were cultured in ready-to-use HFDPC medium, which is composed of Basal Medium, Fetal Calf Serum (FCS), Supplement Kit (Promo Cell, Heidelberg, Germany) including basic FGF and insulin. Kit including HEPES Buffer Saline Solution (HBSS), trypsin/EDTA solution and Trypsin Neutralizing Solution (Promo Cell, Heidelberg, Germany) was used for subculture. Subcultured 4th to 6th TFDPC was used for experiments. HaCaT (human epidermal keratinocyte) was cultured in Dulbecco's modified Eagle's medium (DMEM, Gibco BRL,\n(§5) 3-[4,5-dimethylthiazol-2yl]-2,5 diphenyl tetrazolium bromide (MTT) Assay\n(§6) Cell proliferation of HFDPC and HaCaT were measured by using MTT method. After cells were seeded in 96-well with serum-free medium, the cells were incubated for 1 day (1.0×10^4 cells/well). Then, we replaced with new medium and cells were treated with 0.01 μM, 0.05 μM, 0.1 μμM, 0.5 μM and 1 μM samples, then incubated for 5 days. MTT solution (5 mg/ml) was added, the cells were cultivated in 37° C. incubator for 3 hours. Then, the medium were removed and the formazan crystal were dissolved with Dimethyl sulfoxide (DMSO), then the absorbance of the solution were measured.\nAs described in the FIG. 1 and FIG. 2, data were expressed as the percentage on the control that doesn't contain the treated samples. […]"}, "[3]": {"test_system": "AKT pathway (PI3K, pAKT) in HaCaT", "assay": "Western blot, AKT pathway in HaCaT", "type": "cell-based, human", "conditions": "0.5 μM, 1 hour", "method": "as §1\n(§7) Cells were treated with 7′-phloroeckol for 1 hour to 24 hours to examine the expression of protein by using western blot assay. […]\n(§8) Data were expressed as a ratio of control group that doesn't contain the treated samples, the values are means±SEM, different letters written on the graph indicate a significant defference in Duncan's multiple range test (p<0.05). […]"}, "[4]": {"test_system": "caspase-3 and caspase-9 in HFDPC", "assay": "Western blot, caspase-3 and caspase-9 in HFDPC", "type": "cell-based, human", "conditions": "0.5 μM, 24 hours", "method": "as §1, §7, §8"}, "[5]": {"test_system": "Human Hair Follicle Dermal Papilla Cells (HFDPC)", "assay": "MTT assay, cell proliferation of HFDPC", "type": "cell-based", "method": "as §4, §5, §6\nAs described in the FIG. 1 and FIG. 2, data were expressed as the percentage on the control that doesn't contain the treated samples. […] Different letters as stated on the graph indicate a significant difference in Duncan's multiple range test (p<0.05)."}, "Bcl-2, Bax, p53 in HFDPC": {"test_system": "Bcl-2, Bax, p53 in HFDPC", "assay": "Western blot, apoptosis-related factors in HFDPC", "type": "cell-based, human", "conditions": "24 hours", "method": "as §1, §2, §3\n(§9) To study the apoptotic effect by 7′-phloroeckol, HFDPC and HaCaT were treated with 7′-phloroeckol, then cultured for 24 hours (FIG. 5)."}, "[6]": {"test_system": "caspase-3 and caspase-9 in HaCaT", "assay": "Western blot, caspase-3 and caspase-9 in HaCaT", "type": "cell-based, human", "conditions": "24 hours", "method": "as §1, §2, §8"}, "[7]": {"test_system": "ERK pathway (MEK ½, p-ERK, total ERK, c-Fos) in HFDPC", "assay": "Western blot, ERK pathway in HFDPC", "type": "cell-based, human", "conditions": "1 hour", "method": "as §1, §2, §3\n(§10) HFDPC and HaCaT were treated with 7′-phloroeckol and cultured for 1 hour to study activation of 7′-phloroeckol on ERK pathway related to cell proliferation (FIG. 3)."}, "Bcl-2, Bax, p53 in HaCaT": {"test_system": "Bcl-2, Bax, p53 in HaCaT", "assay": "Western blot, apoptosis-related factors in HaCaT", "type": "cell-based, human", "conditions": "24 hours", "method": "as §1, §2, §3, §9"}, "[8]": {"test_system": "ERK pathway (MEK ½, p-ERK, c-Fos) in HaCaT", "assay": "Western blot, ERK pathway in HaCaT", "type": "cell-based, human", "conditions": "1 hour", "method": "as §1, §2, §3, §10"}},
  "data": [
    {"smiles": "Oc1cc(O)cc(Oc2c(O)cc(O)c3c2Oc2c(O)cc(Oc4c(O)cc(O)cc4O)cc2O3)c1", "note": "[7′-phloroeckol, 1-(3′,5′-dihydroxyphenoxy)-7-(2″,4″,6-trihydroxyphenoxy)-2,4,9-trihydroxydibenzo-1,4-dioxin]", "values": [
      {"measurement": "PI3K levels versus control group", "setting": "[1]; 0.05 μM", "result": 1.76, "unit": "fold"},
      {"measurement": "expression of phospho AKT (p-AKT) protein versus control group", "setting": "[1]; 0.05 μM", "result": 1.53, "unit": "fold"},
      {"measurement": "PI3K levels versus control group", "setting": "[1]; 0.5 μM", "result": 3.07, "unit": "fold"},
      {"measurement": "expression of phospho AKT (p-AKT) protein versus control group", "setting": "[1]; 0.5 μM", "result": 2.40, "unit": "fold"},
      {"measurement": "whole AKT levels, treated versus untreated", "setting": "[1]", "result": "no difference"},
      {"measurement": "cell proliferation in HaCaT", "setting": "[2]; 0.01-1 μM, percentage of control", "result": "increased the cell proliferation in dose-dependent manner"},
      {"measurement": "cell viability compared with 0.1 μM Minoxidil", "setting": "[2]; HaCaT, 0.1 μM", "result": "higher cell viability than 0.1 μM Minoxidil"},
      {"measurement": "level of PI3K", "setting": "[3]", "result": 1.75, "unit": "fold"},
      {"measurement": "level of pAKT", "setting": "[3]", "result": 1.65, "unit": "fold"},
      {"measurement": "expression of caspase-3 protein versus control group", "setting": "[4]", "result": 0.14, "unit": "fold"},
      {"measurement": "expression of caspase-9 protein versus control group", "setting": "[4]", "result": 0.13, "unit": "fold"},
      {"measurement": "cell proliferation in HFDPC", "setting": "[5]; 0.01-1 μM, 5 days, percentage of control", "result": "increased the cell proliferation in dose-dependent manner"},
      {"measurement": "cell viability compared with 1 μM Minoxidil", "setting": "[5]; HFDPC, 1 μM, 5 days", "result": "significantly higher cell viability than 1 μM Minoxidil"},
      {"measurement": "cell proliferation, 0.5 versus 1 μM", "setting": "[5]; HFDPC, 0.5 to 1 μM", "result": "weren't significantly different"},
      {"measurement": "expression level of Bcl-2", "setting": "Bcl-2, Bax, p53 in HFDPC", "result": "decreased"},
      {"measurement": "expression level of p53", "setting": "Bcl-2, Bax, p53 in HFDPC", "result": "decreased"},
      {"measurement": "expression of proapoptotic molecule Bax", "setting": "Bcl-2, Bax, p53 in HFDPC", "result": "decreased the expression of proapoptotic molecule Bax"},
      {"measurement": "expression level of Bcl-2 protein", "setting": "Bcl-2, Bax, p53 in HFDPC; dose-dependent", "result": "significantly increased"},
      {"measurement": "expression of caspase-3 protein versus control group", "setting": "[6]; 0.05 μM", "result": 0.88, "unit": "fold"},
      {"measurement": "expression of caspase-3 protein versus control group", "setting": "[6]; 0.5 μM", "result": 0.68, "unit": "fold"},
      {"measurement": "expression of caspase-9", "setting": "[6]", "result": "suppressing the expression"},
      {"measurement": "expression of MEK ½ protein versus control group", "setting": "[7]; 0.05 μM", "result": 1.17, "unit": "fold"},
      {"measurement": "level of phospho-ERK (p-ERK) versus control group", "setting": "[7]; 0.05 μM", "result": 1.39, "unit": "fold"},
      {"measurement": "expression of MEK ½ protein versus control group", "setting": "[7]; 0.5 μM", "result": 1.65, "unit": "fold"},
      {"measurement": "level of phospho-ERK (p-ERK) versus control group", "setting": "[7]; 0.5 μM", "result": 1.71, "unit": "fold"},
      {"measurement": "expression of c-Fos protein", "setting": "[7]; 0.05 and 0.5 μM", "result": "increased the expression of c-Fos protein"},
      {"measurement": "total ERK levels, treated versus untreated", "setting": "[7]; 0.05 and 0.5 μM", "result": "no significant difference"},
      {"measurement": "expression of Bcl-2 protein versus control group", "setting": "Bcl-2, Bax, p53 in HaCaT; 0.05 μM", "result": 2.60, "unit": "fold"},
      {"measurement": "expression of Bcl-2 protein versus control group", "setting": "Bcl-2, Bax, p53 in HaCaT; 0.5 μM", "result": 4.21, "unit": "fold"},
      {"measurement": "level of Bax versus control", "setting": "Bcl-2, Bax, p53 in HaCaT; 0.5 μM", "result": 0.67, "unit": "fold"},
      {"measurement": "level of p53 versus control", "setting": "Bcl-2, Bax, p53 in HaCaT; 0.5 μM", "result": 0.72, "unit": "fold"},
      {"measurement": "expression of MEK ½ protein", "setting": "[8]", "result": "increased in dose-dependent manner"},
      {"measurement": "expression of c-Fos protein", "setting": "[8]", "result": "increased in dose-dependent manner"},
      {"measurement": "expression of p-ERK protein", "setting": "[8]", "result": "increased in dose-dependent manner"}
    ]}
  ]
}
